“Also recorded” adds a separate entry of the source. Where two headings read alike, the source gives them in different places.
What was measured:
[1] = system: bovine trachea smooth muscle (BTSM) strips; assay: Bovine trachea smooth muscle (BTSM) strips, isometric tension measurements; conditions: for EC50: Bos taurus, relaxation of methacholine-pre-contracted BTSM strips, mean ± SEM, 3 determinations; for effect of the ß2-adrenoceptor antagonist propranolol on the relaxation of BTSM strips induced by the compound: 1 μM propranolol, 30 minutes prior (FIG. 4); for shift of the dose response curve for isoprenaline (isoprenaline-induced relaxation): BTSM strips pre-incubated with compound at 30 μM (FIG. 5); for contraction induced by methacholine: BTSM strips pre-incubated with compound at 30 μM, methacholine dose response curve (FIG. 6); for relaxation of methacholine-pre-contracted BTSM strips: accumulative doses 1-300 μM, strips pre-contracted with methacholine (FIG. 3); for isometric tension of BTSM strips at 30 μM: concentration of 30 μM
Procedure: (§1) For cell-based studies, the SUL compounds were dissolved in 0.9% NaCl as 1 mM stock solutions. For the isometric tension measurements, the SUL compounds were dissolved in 100% DMSO as 100 mM stock solution.
Assay 3: Bovein Trachea Smooth Muscle (BTSM) Strips and Isometric Tension Measurements
Isometric tension measurements were performed as described previously (Roscioni et al., 2011: Roscioni, Prins et al., 2011). BTSM strips were mounted for isometric recording in organ-baths, containing Krebs-Henseleit (KH) buffer, containing in mM: […], 25 NaHCO3, 5.5 glucose, 5.6 KCl, 1.18 MgSO4, 2.50 CaCl2, 1.28 NaH2PO4, pre-gasses with 5% of CO2 and 95% O2, pH 7.4. After dissection of the smooth muscle layer and careful removal of connective tissue, BTSM strips of approximately 1 cm length and 2 mm width were prepared. Tissue strips were cultured in DMEM supplemented with non-essential amino acid mixture (1:100), sodium pyruvate (1 mM), gentamicin (45 μg*ml−1), penicillin (100 U*ml−1), streptomycin 100 μg*ml−1, amphotericin B (1.5 μg*ml−1) apo-transferrin (5 μg*ml−1) and ascorbic acid (100 μM). The BTSM strips were cultured for 1-3 days before isometric tension measurement in an Innova 4000 incubator shaker 37° C. 55 rpm).
For isometric tension measurements (Roscioni et al., 2011: Roscioni, Prins et al., 2011). BTSM strips were calibrated, were mounted into the transducers and submerged into the organ baths in pre-gassed KH buffer. Each strip was adjusted to a basal tension of 3 gram. Then, the strips were washed, equilibrated again for 60 minutes, followed by pre-contractions induced by 1×10-3.5 μM methacholine. To analyze acute effects of the SUL-compounds on the isometric tension, the strips were incubated with accumulative doses of the SUL-compounds (1-300 μM), followed by the addition of 0.01 μM isoprenaline.
To analyze potential role of the ß2-AR in the effects induced by the SUL-compounds, the strips were incubated with 1 μM propranonol for 30 minutes prior addition of the SUL-compounds. To analyze potential effects of the SUL-compounds on the isoprenaline-induced relaxation, the strips were first incubated with the SUL-compounds (30 μM each), followed by the addition of accumulative doses of isoprenaline (1×10.5-1 μM). Finally, to analyze potential effects of the SUL-compounds on the methacholine-induced contraction, the strips were first incubated with the SUL-compounds (30 μM each), followed by addition of accumulative doses of methacholine (0.001-30 μM), before the addition of 0.01 μM isoprenaline.
Data are shown are mean±standard error of the mean. One-way ANOVA followed by Bonferroni post hoc test, 2-tailed paired t-test, two-way ANOVA was used when appropriate to identify statistical difference between means. A statistical difference was defined as significant at p<0.05.

[2] = system: IL-8 release from hTERT cells; assay: Release of interleukin-8 (IL-8) from hTERT cells exposed to CSE; type: cell-based, human; conditions: 24 hours, 15% CSE, ELISA (FIG. 2)
Excerpt: (§2) In this example, the effects of […] H2S compounds, i.e. SUL90, SUL121 were studied on: • 1) The cell viability of human (immortalized) airway smooth muscle cells (hTERT cells), • 2) The release of the inflammation mediator IL-8 from hTERT cells, • 3) Airway smooth muscle contractility of bovine trachea smooth muscle strips. The samples used were: • Two SUL-compounds: SUL90, SUL121; • Human telomerase reverse transcriptase immortalized airway smooth muscles (hTERT) cells, cultured as previously described (Oldenburger et al., 2012). Prior to the experiments, cells were serum-deprived for 1 day, followed by cell treatment with the indicated concentrations of the SUL-compounds in the absence and presence of 15% cigarette smoke extract (CSE) for additional 24 hours. As controls, 1 μM fenoterol and 500 μM of the H2S donor NaHS were used. • 100% cigarette smoke extract (CSE), freshly made by combusting (Watson Marlow 323 E/D, Rotterdam, The Netherlands) the smoke of two research cigarettes (University of Kentucky 2R4F) through 25 mL of DMEM (FBS-free) at a speed of approximately 1 cigarette/5 minutes. Afterwards, CSE was diluted to 15% (Oldenburger et al., 2012).
as §1
Assay 2: Release of interleukin-8 (IL-8) from hTERT Cells
This assay was used to determine the release of interleukin-8 from hTERT cells, fenoterol (1 μM) and the H2S donor (500 μM) served as controls. 24 hours after cell stimulation with the indicated concentrations of the SUL-compounds in the absence and presence of 15% CSW, culture medium was collected to measure the IL-8 concentration in the cell supernatants according to the manufacturer's instructions (PeliKine Compact ELISA kit, Sanquin, The Netherlands), as previously described (Oldenburger et al., 2012.

hTERT cells = assay: Trypan blue cell counting (cell viability); type: cell-based, human; conditions: 24 hours, absence or presence of 15% CSE, trypan blue counting (FIG. 1)
Excerpt: as §2, §1
Assay 1: Trypan Blue Cell Counting
For cell viability measurements, trypan blue cell counting was performed as previously described (Oldenburger et al., 2012). As control, 500 μM of the H2S donor NaHS was used. Alternatively, alamar blue measurements were performed to determine cell viability essentially as described before (Oldenburger et al., 2012).
Briefly, hTERT cells were plated on 24-well plates as a cell density of 10,000 cells/well. Again cells were serum-deprived for 1 day, followed by cell treatment with the indicated concentrations of the SUL-compounds in the absence and presence of 15% cigarette smoke extract (CSE) for additional 24 hours.

[3] = 1 μM propranolol pre-incubation, read-out: pD2, Propranolol (converted)
[4] = solvent treated, read-out: pD2, Solvent (converted)

Row | Compound | EC50 [1, 3] | EC50 [1, 4] | CSE-induced IL-8 release from hTERT cells [2] | effect of the ß2-adrenoceptor antagonist propranolol on the relaxation of BTSM strips induced by the compound [1] | shift of the dose response curve for isoprenaline (isoprenaline-induced relaxation) [1] | contraction induced by methacholine [1] | relaxation of methacholine-pre-contracted BTSM strips [1] | isometric tension of BTSM strips at 30 μM [1] | further results
1 | CC(C)NCC(O)COc1cccc2ccccc12 (centres unmarked) [propranolol, reference compound] |  |  |  |  |  |  |  |  | shift of the dose-response curve for isoprenaline by propranolol ([1]; BTSM strips pre-incubated with 1 μM propranolol (FIG. 4)): right-ward shift
2 | CC(C)NCC(O)c1ccc(O)c(O)c1 (centres unmarked) [Isoprenaline, reference compound] | 3.98 µM | 0.02 µM |  |  |  |  |  |  | 
3 | Cc1c(C)c2c(c(C)c1O)CCC(C)(C(=O)NO)O2 (centres unmarked) [Sul-90, N,6-dihydroxy-2,5,7,8-tetramethylchroman-2-carboxamide] | 316 µM | 398 µM | significantly reduce the release; also recorded: inhibit CSE-induced IL-8 release | trend to a left-ward shift; also recorded: does not alter the relaxation | not | reduced the contraction; also recorded: decrease the contraction | shows a trend to induce relaxation | leave the isometric tension unaffected | CSE-induced IL-8 release from hTERT cells ([2]; listed as SUL90): inhibit the cellular IL-8 release; effect of the ß2-adrenoceptor antagonist propranolol on the relaxation of BTSM strips induced by the compound ([1]; listed as SUL90): ß2-adrenoceptor-independent; effect of the ß2-adrenoceptor antagonist propranolol on the relaxation of BTSM strips induced by the compound ([1]; listed as Sul90): not affected by propranolol; contraction induced by methacholine ([1]; listed as SUL90): significantly reduce the contraction; concentrations at which a trend to relaxation of BTSM strips is shown ([1]; methacholine-pre-contracted BTSM strips (FIG. 3)): higher than 100 μM; cell viability of hTERT cells (hTERT cells; listed as SUL90): do not severely alter cell viability; cell viability of hTERT cells (hTERT cells; listed as SUL-90): seem not to severely alter the cell viability
4 | Cc1c(C)c2c(c(C)c1O)CCC(C)(C(=O)N1CCNCC1)O2 (centres unmarked) [Sul-121, (6-hydroxy-2,5,7,8-tetramethylchroman-2-yl)(piperazin-1-yl)methanone] | 316 µM | 316 µM | significantly reduce the release; also recorded: inhibit CSE-induced IL-8 release | not affected by propranolol; also recorded: does not alter the relaxation | significant right-ward shift; also recorded: shifts the dose response curve or isoprenaline to the right | decrease the contraction | even more pronounced relaxation, reaching statistical significance; also recorded: induce relaxation | leave the isometric tension unaffected | CSE-induced IL-8 release from hTERT cells ([2]; listed as SUL121): inhibit the cellular IL-8 release; effect of the ß2-adrenoceptor antagonist propranolol on the relaxation of BTSM strips induced by the compound ([1]; listed as SUL121): ß2-adrenoceptor-independent; shift of the dose response curve for isoprenaline (isoprenaline-induced relaxation) ([1]; listed as SUL212): right-ward shift; contraction induced by methacholine ([1]; listed as SUL121): significantly reduce the contraction; contraction induced by methacholine ([1]; listed as Sul121): reduced the contraction; cell viability of hTERT cells (hTERT cells; listed as SUL121): do not severely alter cell viability; cell viability of hTERT cells (hTERT cells; listed as SUL-121): seem not to severely alter the cell viability
5 | Cc1c(C)c2c(c(C)c1O)CCC(C)(C(=O)N1CCN(CC(=O)O)CC1)O2 (centres unmarked) [Sul-136, 2-(4-(6-hydroxy-2,5,7,8-tetramethylchroman-2-carbonyl)piperazin-1-yl)acetic acid] |  |  |  |  |  |  | do not alter the contractile tone |  | cell viability of hTERT cells (hTERT cells): do not alter cell viability
